# Measurements published in US9045445B2, “Glycine transporter-1 inhibitors, methods of making them, and uses thereof” (Albany Molecular Research, Inc., priority 2010, dated 2015).
# Where a name gives a salt, the structure may show the parent alone.
# How the values were obtained:
# [1] = target: T1, glycine transporter-1 (GlyT-1) (Homo sapiens, UniProt P48067); test: [14C]glycine uptake assay in JAR cells endogenously expressing GlyT-1 (scintillation proximity); assay type: cell-based; settings: JAR cells, [14C]glycine 5 μM, 3 hour incubation; read-out: GlyT-1 IC50
# T1 construct: JAR cells (ATCC#HTB-144), which endogenously express GlyT-1; host or cells: JAR human choriocarcinoma cells
# T1 sequence (P48067 1-706): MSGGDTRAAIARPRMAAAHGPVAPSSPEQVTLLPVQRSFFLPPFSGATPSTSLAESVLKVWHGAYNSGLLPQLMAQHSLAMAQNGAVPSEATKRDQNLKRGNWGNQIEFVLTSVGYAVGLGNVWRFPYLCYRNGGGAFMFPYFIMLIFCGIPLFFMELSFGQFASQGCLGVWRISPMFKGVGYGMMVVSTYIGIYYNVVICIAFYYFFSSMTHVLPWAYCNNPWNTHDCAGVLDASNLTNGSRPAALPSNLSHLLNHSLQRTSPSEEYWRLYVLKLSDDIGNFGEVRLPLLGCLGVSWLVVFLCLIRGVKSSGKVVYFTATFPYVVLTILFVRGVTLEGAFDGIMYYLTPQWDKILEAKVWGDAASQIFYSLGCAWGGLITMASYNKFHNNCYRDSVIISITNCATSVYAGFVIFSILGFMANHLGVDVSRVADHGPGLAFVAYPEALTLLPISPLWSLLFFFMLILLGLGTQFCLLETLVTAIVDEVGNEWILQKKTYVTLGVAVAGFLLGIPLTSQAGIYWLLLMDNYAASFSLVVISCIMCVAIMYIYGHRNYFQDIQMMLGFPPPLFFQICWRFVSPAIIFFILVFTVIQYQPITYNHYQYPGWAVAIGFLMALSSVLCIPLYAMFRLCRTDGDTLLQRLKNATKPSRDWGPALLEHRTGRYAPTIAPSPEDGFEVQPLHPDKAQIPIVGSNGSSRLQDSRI
# Outline: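 IC50 comes from a four-parameter fit of nine-point, duplicate curves measuring inhibition of 5 μM [14C]glycine uptake, read by scintillation proximity after 3 h at 37 °C. Cells are human JAR, which express GlyT-1 endogenously, given 10 min compound pre-treatment in pH 7.4 buffer with 5 mM alanine and 0.75% DMSO.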
# [2] = target: T2, glycine transporter-2 (GlyT-2) (Homo sapiens, UniProt Q9Y345); test: [14C]glycine uptake assay in HEK-GlyT-2 transfected cells; assay type: cell-based; settings: HEK-GlyT-2 cells
# T2 construct: expressed in transfected cells
# T2 sequence (Q9Y345 1-797): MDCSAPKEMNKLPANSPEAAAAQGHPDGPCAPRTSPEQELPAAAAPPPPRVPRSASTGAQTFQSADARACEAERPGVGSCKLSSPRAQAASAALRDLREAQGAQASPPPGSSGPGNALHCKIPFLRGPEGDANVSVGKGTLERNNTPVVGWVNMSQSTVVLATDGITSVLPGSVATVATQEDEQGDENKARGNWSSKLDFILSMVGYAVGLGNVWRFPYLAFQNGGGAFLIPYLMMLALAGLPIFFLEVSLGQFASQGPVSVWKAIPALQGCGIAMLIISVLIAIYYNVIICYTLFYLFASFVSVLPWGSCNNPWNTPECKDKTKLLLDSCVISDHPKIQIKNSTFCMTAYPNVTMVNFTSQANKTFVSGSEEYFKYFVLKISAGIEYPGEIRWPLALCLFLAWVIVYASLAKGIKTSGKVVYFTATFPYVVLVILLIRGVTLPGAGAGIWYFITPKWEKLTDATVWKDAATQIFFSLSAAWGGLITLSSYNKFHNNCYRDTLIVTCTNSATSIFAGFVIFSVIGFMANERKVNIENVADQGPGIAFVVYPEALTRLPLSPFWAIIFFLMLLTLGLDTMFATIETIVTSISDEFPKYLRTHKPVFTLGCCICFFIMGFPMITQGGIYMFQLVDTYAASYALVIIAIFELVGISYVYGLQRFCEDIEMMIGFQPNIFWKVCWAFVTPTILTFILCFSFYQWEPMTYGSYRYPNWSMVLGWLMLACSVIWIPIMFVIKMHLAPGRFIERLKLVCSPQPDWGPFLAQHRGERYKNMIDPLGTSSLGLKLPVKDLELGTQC
Structure (SMILES),IC50 [1] [nM],IC50 [2] [nM]
"Cn1cc(S(=O)(=O)N2CCN(C3(CNC(=O)c4ccc(F)cc4F)CCCC3)CC2)nn1 [compound 111, 2,4-Difluoro-N-((1-(4-(1-methyl-1H-1,2,3-triazol-4-ylsulfonyl)piperazin-1-yl)cyclopentyl)methyl) benzamide Hydrochloride]",242,> 75000
"COc1cc(F)cc(C)c1C(=O)NCC1(N2CCN(S(=O)(=O)c3cn(C)nn3)CC2)CCCC1 [compound 112, 4-Fluoro-2-methoxy-6-methyl-N-((1-(4-(1-methyl-1H-1,2,3-triazol-4-ylsulfonyl)piperazin-1-yl)cyclopentyl)methyl) benzamide Hydrochloride]",14,> 75000
"COc1cc(F)cc(SC)c1C(=O)NCC1(N2CCN(S(=O)(=O)c3cn(C)nn3)CC2)CCCC1 [compound 113, 4-Fluoro-2-methoxy-N-((1-(4-(1-methyl-1H-1,2,3-triazol-4-ylsulfonyl)piperazin-1-yl)cyclopentyl)methyl)-6-(methylthio)benzamide Hydrochloride]",3,> 75000
"Cn1cc(S(=O)(=O)N2CCN(C3(CNC(=O)c4c(F)cccc4F)CCCCC3)CC2)nn1 [compound 114, 2,6-Difluoro-N-((1-(4-(1-methyl-1H-1,2,3-triazol-4-ylsulfonyl)piperazin-1-yl)cyclohexyl)methyl) benzamide Hydrochloride]",2,> 75000
"CCCS(=O)(=O)N1CCN(C2(CNC(=O)c3c(N)cccc3Cl)Cc3ccccc3C2)CC1 [compound 115, 2-Amino-6-chloro-N-((2-(4-(propylsulfonyl)piperazin-1-yl)-2,3-dihydro-1H-inden-2-yl)methyl)benzamide Hydrochloride]",661,> 75000
"CCCS(=O)(=O)N1CCN(C2(CNC(=O)c3c(N)cccc3Cl)CCN(C)CC2)CC1 [compound 116, 2-Amino-6-chloro-N-((1-methyl-4-(4-(propylsulfonyl)piperazin-1-yl)piperidin-4-yl)methyl)benzamide Hydrochloride]",500,> 75000
"CC1CN(C2(CNC(=O)c3c(F)cccc3F)CCCCC2)CCN1S(=O)(=O)CC1CC1 (centres unmarked) [compound 117, N-((1-(4-(Cyclopropylmethyl-sulfonyl)-3-methylpiperazin-1-yl)cyclohexyl)methyl)-2,6-difluorobenzamide Hydrochloride]",1070,> 75000
"CCCS(=O)(=O)N1CCN(C2(CNC(=O)c3c(Cl)cccc3Cl)CCOCC2)CC1 [compound 119, 2,6-Dichloro-N-((4-(4-(propylsulfonyl)piperazin-1-yl)tetrahydro-2H-pyran-4-yl)methyl)benzamide Hydrochloride]",276,> 45000
"CCCS(=O)(=O)N1CCN(C2(CNC(=O)c3c(C)cccc3C)CCOCC2)CC1 [compound 120, 2,6-Dimethyl-N-((4-(4-(propylsulfonyl)piperazin-1-yl)tetrahydro-2H-pyran-4-yl)methyl)benzamide Hydrochloride]",175,41300
"CCCS(=O)(=O)N1CCN(C2(CNC(=O)c3c(C)cc(F)cc3OC)CCOCC2)CC1 [compound 121, 4-Fluoro-2-methoxy-6-methyl-N-((4-(4-(propylsulfonyl)piperazin-1-yl)tetrahydro-2H-pyran-4-yl)methyl)benzamide Hydrochloride]",191,> 45000
"CCCS(=O)(=O)N1CCN(C2(CNC(=O)c3c(OC)cc(F)cc3SC)CCOCC2)CC1 [compound 122, 4-Fluoro-2-methoxy-6-(methylthio)-N-((4-(4-(propylsulfonyl)piperazin-1-yl)tetrahydro-2H-pyran-4-yl)methyl)benzamide Hydrochloride]",95,> 75000
"CCCS(=O)(=O)N1CCN(C2(CNC(=O)c3c(F)cccc3OC)CCOCC2)CC1 [compound 123, 2-Fluoro-6-methoxy-N-((4-(4-(propyl-sulfonyl)piperazin-1-yl)tetrahydro-2H-pyran-4-yl)methyl)benzamide Hydrochloride]",418,> 75000
"Cn1cnc(S(=O)(=O)N2CCN(C3(CNC(=O)c4c(F)cccc4F)CCOCC3)CC2)c1 [compound 124, 2,6-Difluoro-N-((4-(4-(1-methyl-1H-imidazol-4-ylsulfonyl)piperazin-1-yl)tetrahydro-2H-pyran-4-yl)methyl)benzamide Hydrochloride]",337,> 75000
"CCCS(=O)(=O)N1CCN(C2(CNC(=O)c3ccc(Cl)cc3Cl)CCCOC2)CC1 (centres unmarked) [compound 125, 2,4-Dichloro-N-((3-(4-(propylsulfonyl)piperazin-1-yl)tetrahydro-2H-pyran-3-yl)methyl)benzamide Hydrochloride]",177,> 75000
"O=C(NCC1(N2CCN(S(=O)(=O)CC3CC3)CC2)CCCOC1)c1c(F)cccc1F (centres unmarked) [compound 126, N-((3-(4-(Cyclopropylmethyl-sulfonyl)piperazin-1-yl)tetrahydro-2H-pyran-3-yl)methyl)-2,6-difluorobenzamide Hydrochloride]",724,> 75000
"Cn1cnc(S(=O)(=O)N2CCN(C3(CNC(=O)c4c(F)cccc4F)CCCOC3)CC2)c1 (centres unmarked) [compound 127, 2,6-Difluoro-N-((3-(4-(1-methyl-1H-imidazol-4-ylsulfonyl)piperazin-1-yl)tetrahydro-2H-pyran-3-yl)methyl)benzamide Hydrochloride]",369,> 75000
"Cn1cc(S(=O)(=O)N2CCN(C3(CNC(=O)c4c(F)cccc4F)CCOCC3)CC2)nn1 [compound 128, 2,6-Difluoro-N-((4-(4-(1-methyl-1H-1,2,3-triazol-4-ylsulfonyl)piperazin-1-yl)tetrahydro-2H-pyran-4-yl)methyl)benzamide Hydrochloride]",83,> 75000
"Cn1cc(S(=O)(=O)N2CCN(C3(CNC(=O)c4ccc(Cl)cc4Cl)CCOCC3)CC2)nn1 [compound 129, 2,4-Dichloro-N-((4-(4-(1-methyl-1H-1,2,3-triazol-4-ylsulfonyl)piperazin-1-yl)tetrahydro-2H-pyran-4-yl)methyl)benzamide Hydrochloride]",11,> 75000
"CCCS(=O)(=O)N1CCN(C2(CNC(=O)c3ccccc3C(F)(F)F)CCC(F)(F)CC2)CC1 [compound 132, N-((4,4-Difluoro-1-(4-(propylsulfonyl)piperazin-1-yl)cyclohexyl)methyl)-2-(trifluoromethyl) benzamide Hydrochloride]",64,> 75000
"CCCS(=O)(=O)N1CCN(C2(CNC(=O)c3ccccc3OC)CCC(F)(F)CC2)CC1 [compound 133, N-((4,4-Difluoro-1-(4-(propylsulfonyl)piperazin-1-yl)cyclohexyl)methyl)-2-methoxybenzamide Hydrochloride]",48,> 75000
"CCCS(=O)(=O)N1CCN(C2(CNC(=O)c3c(Cl)cccc3Cl)CCC(F)(F)CC2)CC1 [compound 135, 2,6-Dichloro-N-((4,4-difluoro-1-(4-(propylsulfonyl)piperazin-1-yl)cyclohexyl)methyl) benzamide Hydrochloride]",42,> 75000
"CCCS(=O)(=O)N1CCN(C2(CNC(=O)c3ccc(Cl)cc3Cl)CCC(F)(F)CC2)CC1 [compound 136, 2,4-Dichloro-N-((4,4-difluoro-1-(4-(propylsulfonyl)piperazin-1-yl)cyclohexyl)methyl) benzamide Hydrochloride]",36,> 75000
